Measured values taken from ChEMBL document CHEMBL3763148, “Synthesis, structure elucidation, DNA-PK and PI3K and anti-cancer activity of 8- and 6-aryl-substituted-1-3-benzoxazines” (Eur J Med Chem, 2016).
pIC50: −log10 of the molar value.

Experiments:
[1] = test system: MDA-MB-468; assay: Cytotoxicity against human MDA-MB-468 cells assessed as cell growth inhibition at 10 uM after 48 hrs by SRB assay relative to control; assay type: functional; conditions: MDA-MB-468, 48 h, read-out: GI
[2] = Cytotoxicity against human COLO205 cells assessed as cell growth inhibition at 10 uM after 48 hrs by SRB assay relative to control; assay type: functional; conditions: COLO 205, 48 h, read-out: GI
[3] = test system: KM12; assay: Cytotoxicity against human KM12 cells assessed as cell growth inhibition at 10 uM after 48 hrs by SRB assay relative to control; assay type: functional; conditions: KM12, 48 h, read-out: GI
[4] = test system: CCRF-CEM; assay: Cytotoxicity against human CCRF-CEM cells assessed as cell growth inhibition at 10 uM after 48 hrs by SRB assay relative to control; assay type: functional; conditions: read-out: GI
[5] = Cytotoxicity against human OVCAR4 cells assessed as cell growth inhibition at 10 uM after 48 hrs by SRB assay relative to control; assay type: functional; conditions: OVCAR-4, 48 h, read-out: GI
[6] = test system: NCI-H522; assay: Cytotoxicity against human NCI-H522 cells assessed as cell growth inhibition at 10 uM after 48 hrs by SRB assay relative to control; assay type: functional; conditions: NCI-H522, 48 h, read-out: GI
[7] = test system: A498; assay: Cytotoxicity against human A498 cells assessed as cell growth inhibition at 10 uM after 48 hrs by SRB assay relative to control; assay type: functional; conditions: A498, 48 h, read-out: GI
[8] = Cytotoxicity against human SW620 cells assessed as cell growth inhibition at 10 uM after 48 hrs by SRB assay relative to control; assay type: functional; conditions: SW-620, 48 h, read-out: GI
[9] = Cytotoxicity against human SNB75 cells assessed as cell growth inhibition at 10 uM after 48 hrs by SRB assay relative to control; assay type: functional; conditions: SNB-75, 48 h, read-out: GI
[10] = Cytotoxicity against human UACC257 cells assessed as cell growth inhibition at 10 uM after 48 hrs by SRB assay relative to control; assay type: functional; conditions: UACC-257, 48 h, read-out: GI
[11] = test system: SK-MEL-5; assay: Cytotoxicity against human SK-MEL-5 cells assessed as cell growth inhibition at 10 uM after 48 hrs by SRB assay relative to control; assay type: functional; conditions: SK-MEL-5, 48 h, read-out: GI
[12] = test system: A549; assay: Cytotoxicity against human A549 cells assessed as cell growth inhibition at 10 uM after 48 hrs by SRB assay relative to control; assay type: functional; conditions: A549, 48 h, read-out: GI
[13] = Cytotoxicity against human HCC2998 cells assessed as cell growth inhibition at 10 uM after 48 hrs by SRB assay relative to control; assay type: functional; conditions: HCC 2998, 48 h, read-out: GI
[14] = Cytotoxicity against human UACC62 cells assessed as cell growth inhibition at 10 uM after 48 hrs by SRB assay relative to control; assay type: functional; conditions: UACC-62, 48 h, read-out: GI
[15] = Cytotoxicity against human PC3 cells assessed as cell growth inhibition at 10 uM after 48 hrs by SRB assay relative to control; assay type: functional; conditions: PC-3, 48 h, read-out: GI
[16] = Cytotoxicity against human HCT116 cells assessed as cell growth inhibition at 10 uM after 48 hrs by SRB assay relative to control; assay type: functional; conditions: HCT-116, 48 h, read-out: GI
[17] = target: T1, Phosphatidylinositol 4,5-bisphosphate 3-kinase catalytic subunit delta isoform (Homo sapiens, UniProt O00329); assay: Inhibition of PI3Kdelta (unknown origin) incubated for 60 mins by kinase-glo luminescence assay
T1 sequence (O00329 whole entry): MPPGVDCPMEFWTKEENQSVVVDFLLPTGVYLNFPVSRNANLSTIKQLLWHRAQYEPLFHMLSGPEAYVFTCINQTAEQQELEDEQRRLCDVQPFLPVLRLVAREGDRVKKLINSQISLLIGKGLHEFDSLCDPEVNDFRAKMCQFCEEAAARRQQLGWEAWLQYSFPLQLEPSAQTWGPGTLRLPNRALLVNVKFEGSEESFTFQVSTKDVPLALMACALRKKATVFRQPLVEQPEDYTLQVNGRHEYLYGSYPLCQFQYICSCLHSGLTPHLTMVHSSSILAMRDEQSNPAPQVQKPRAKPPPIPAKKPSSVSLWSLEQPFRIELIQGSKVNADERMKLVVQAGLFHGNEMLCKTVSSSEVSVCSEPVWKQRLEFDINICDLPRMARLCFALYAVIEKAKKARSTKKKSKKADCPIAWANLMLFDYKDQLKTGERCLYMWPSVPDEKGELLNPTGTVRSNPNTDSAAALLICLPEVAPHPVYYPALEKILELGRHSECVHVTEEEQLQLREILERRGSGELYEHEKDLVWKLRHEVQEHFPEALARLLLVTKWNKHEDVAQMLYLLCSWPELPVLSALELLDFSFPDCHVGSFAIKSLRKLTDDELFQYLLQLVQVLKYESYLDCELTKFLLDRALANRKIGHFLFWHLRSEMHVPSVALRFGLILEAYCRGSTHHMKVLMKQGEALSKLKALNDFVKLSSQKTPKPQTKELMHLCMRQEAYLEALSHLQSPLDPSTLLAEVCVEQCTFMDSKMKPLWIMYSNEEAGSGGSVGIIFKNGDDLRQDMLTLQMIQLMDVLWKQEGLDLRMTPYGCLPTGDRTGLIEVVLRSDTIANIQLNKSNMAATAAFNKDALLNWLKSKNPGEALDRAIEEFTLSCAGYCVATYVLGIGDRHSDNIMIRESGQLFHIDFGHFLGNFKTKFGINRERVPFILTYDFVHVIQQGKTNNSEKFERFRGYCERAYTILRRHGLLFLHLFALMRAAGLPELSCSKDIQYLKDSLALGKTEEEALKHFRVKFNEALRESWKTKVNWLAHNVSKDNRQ

[18] = test system: Malme-3M; assay: Cytotoxicity against human MALME-3M cells assessed as cell growth inhibition at 10 uM after 48 hrs by SRB assay relative to control; assay type: functional; conditions: read-out: GI
[19] = test system: T47D; assay: Cytotoxicity against human T47D cells assessed as cell growth inhibition at 10 uM after 48 hrs by SRB assay relative to control; assay type: functional; conditions: read-out: GI
[20] = test system: SN12C; assay: Cytotoxicity against human SN12C cells assessed as cell growth inhibition at 10 uM after 48 hrs by SRB assay relative to control; assay type: functional; conditions: read-out: GI
[21] = test system: M14; assay: Cytotoxicity against human M14 cells assessed as cell growth inhibition at 10 uM after 48 hrs by SRB assay relative to control; assay type: functional; conditions: M14, 48 h, read-out: GI
[22] = Cytotoxicity against human UO31 cells assessed as cell growth inhibition at 10 uM after 48 hrs by SRB assay relative to control; assay type: functional; conditions: UO-31, 48 h, read-out: GI
[23] = test system: HT-29; assay: Cytotoxicity against human HT-29 cells assessed as cell growth inhibition at 10 uM after 48 hrs by SRB assay relative to control; assay type: functional; conditions: HT-29, 48 h, read-out: GI
[24] = target: Phosphatidylinositol 4,5-bisphosphate 3-kinase catalytic subunit gamma isoform (Homo sapiens) (UniProt P48736); assay: Inhibition of PI3Kgamma (unknown origin) at 10 uM incubated for 60 mins by kinase-glo luminescence assay
Chain of Phosphatidylinositol 4,5-bisphosphate 3-kinase catalytic subunit gamma isoform (Homo sapiens) (P48736 whole entry, looked up, canonical isoform): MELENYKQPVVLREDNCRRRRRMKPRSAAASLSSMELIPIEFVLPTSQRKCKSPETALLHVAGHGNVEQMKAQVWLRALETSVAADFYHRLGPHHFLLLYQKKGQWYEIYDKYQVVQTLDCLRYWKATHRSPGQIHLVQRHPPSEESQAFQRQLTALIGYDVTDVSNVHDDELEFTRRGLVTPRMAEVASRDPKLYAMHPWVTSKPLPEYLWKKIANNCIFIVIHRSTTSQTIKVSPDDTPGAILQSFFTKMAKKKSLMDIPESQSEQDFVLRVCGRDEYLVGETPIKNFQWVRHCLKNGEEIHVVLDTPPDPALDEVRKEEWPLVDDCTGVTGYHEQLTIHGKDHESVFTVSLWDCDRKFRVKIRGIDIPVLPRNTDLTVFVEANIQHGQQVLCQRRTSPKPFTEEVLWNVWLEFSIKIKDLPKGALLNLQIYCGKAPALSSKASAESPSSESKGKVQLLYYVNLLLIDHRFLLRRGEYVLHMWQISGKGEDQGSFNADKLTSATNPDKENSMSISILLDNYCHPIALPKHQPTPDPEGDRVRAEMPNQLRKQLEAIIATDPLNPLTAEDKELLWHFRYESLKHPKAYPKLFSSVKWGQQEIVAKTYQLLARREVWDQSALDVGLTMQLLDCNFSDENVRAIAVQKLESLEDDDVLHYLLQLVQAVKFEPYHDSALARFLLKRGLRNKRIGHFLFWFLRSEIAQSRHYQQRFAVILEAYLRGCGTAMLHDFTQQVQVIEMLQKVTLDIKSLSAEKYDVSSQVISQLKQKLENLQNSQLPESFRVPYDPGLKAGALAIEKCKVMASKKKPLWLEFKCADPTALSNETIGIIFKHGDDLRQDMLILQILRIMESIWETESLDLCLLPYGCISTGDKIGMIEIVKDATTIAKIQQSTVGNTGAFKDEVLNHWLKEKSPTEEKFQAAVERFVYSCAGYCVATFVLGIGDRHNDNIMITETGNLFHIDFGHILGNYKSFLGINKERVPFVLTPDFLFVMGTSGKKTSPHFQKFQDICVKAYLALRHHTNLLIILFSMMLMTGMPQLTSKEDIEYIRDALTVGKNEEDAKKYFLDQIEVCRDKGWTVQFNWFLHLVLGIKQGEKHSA

Row | SMILES | inhibition of growth at 10 µM [1] | inhibition of growth at 10 µM [2] | inhibition of growth at 10 µM [3] | inhibition of growth at 10 µM [4] | inhibition of growth at 10 µM [5] | inhibition of growth at 10 µM [6] | inhibition of growth at 10 µM [7] | inhibition of growth at 10 µM [8] | inhibition of growth at 10 µM [9] | inhibition of growth at 10 µM [10] | inhibition of growth at 10 µM [11] | inhibition of growth at 10 µM [12] | inhibition of growth at 10 µM [13] | inhibition of growth at 10 µM [14] | inhibition of growth at 10 µM [15] | inhibition of growth at 10 µM [16] | inhibition of growth at 10 µM [18] | inhibition of growth at 10 µM [19] | inhibition of growth at 10 µM [20] | inhibition of growth at 10 µM [21] | other results
1 | O=c1nc(N2CCOCC2)oc2c(-c3cccc4ccccc34)cccc12 | 23.5% | -3.19% | 12.7% | 8.52% | 2.95% | 18% | 92% | 2.12% | 53.1% | 3.51% | 20.8% | 14.4% | -9.26% | 45.6% | 40.3% | 3.34% | 24.8% | 20.3% | 17.7% | 6.76% | pIC50 [17]: 6.19; inhibition of growth at 10 µM [22]: 46.6%; inhibition of growth at 10 µM [23]: 10.4%; inhibition [24]: 29%
2 | O=c1nc(N2CCOCC2)oc2ccc(-c3cccc4c3sc3ccccc34)cc12 | 20% | -2.96% | 0.12% | 4.4% | 2.78% | -2.38% | 37.4% | 5.25% | 10.5% | 4.51% | 9.84% | 5.3% | -17.8% | 12.6% | 39.9% | 8.17% | 4.63% | 16.6% | 6.33% | 2.99% | inhibition of growth at 10 µM [22]: 1.02%; inhibition of growth at 10 µM [23]: -13.4%; inhibition [24]: 0%
3 | O=c1nc(N2CCOCC2)oc2c(-c3cccc4c3sc3ccccc34)cccc12 | 26.2% | 3.36% | 21.6% | 19.9% | 7.25% | 28.6% | 46.4% | 5.95% | 53% | 5.04% | 17.2% | 22.5% | 3.55% | 45.6% | 40.5% | 18.7% | 12.4% | 42.8% | 18% | 3.09% | pIC50 [17]: 5.07; inhibition of growth at 10 µM [22]: 52%; inhibition of growth at 10 µM [23]: 16.9%; inhibition [24]: 27%
4 | NC(=O)c1ccc(-c2cccc3c(=O)nc(N4CCOCC4)oc23)cc1 | -5.19% | -3.93% | 2.45% | 1.37% | 9.54% | 10.4% | 1.82% | -3.57% | 25.5% | -3.78% | 2.24% | -0.08% | -1.23% | 7.72% | 10.1% | -3.97% | 14.6% | 12.2% | -3.74% | 2.25% | pIC50 [17]: < 5.00; inhibition of growth at 10 µM [22]: 10.8%; inhibition of growth at 10 µM [23]: -0.51%; inhibition [24]: 10%
5 | O=c1nc(N2CCOCC2)oc2c(-c3ccsc3)cccc12 | 15% | -5.35% | 2.74% | 8.93% | 3.41% | 0.83% | 37.2% | 2.66% | 38.8% | 1.24% | 13.4% | 3.82% | -2.71% | 31.4% | 24.6% | 2.6% | 9.75% | 26.5% | 9.14% | 3.28% | pIC50 [17]: 5.32; inhibition of growth at 10 µM [22]: 23.4%; inhibition of growth at 10 µM [23]: 12.7%; inhibition [24]: 29%
